Experimental data as given in US20240277698A1, “METHODS OF USING ALDOSTERONE SYNTHASE INHIBITORS” (CINCOR PHARMA, INC., priority 2021, published 2024).

Molecular target: T1, CYP11B1 (Homo sapiens, UniProt P15538)
T1 construct: endogenous in cells; host or cells: adrenal cortex of healthy human subjects (in vivo, oral dosing)
T1 sequence (P15538 25-503): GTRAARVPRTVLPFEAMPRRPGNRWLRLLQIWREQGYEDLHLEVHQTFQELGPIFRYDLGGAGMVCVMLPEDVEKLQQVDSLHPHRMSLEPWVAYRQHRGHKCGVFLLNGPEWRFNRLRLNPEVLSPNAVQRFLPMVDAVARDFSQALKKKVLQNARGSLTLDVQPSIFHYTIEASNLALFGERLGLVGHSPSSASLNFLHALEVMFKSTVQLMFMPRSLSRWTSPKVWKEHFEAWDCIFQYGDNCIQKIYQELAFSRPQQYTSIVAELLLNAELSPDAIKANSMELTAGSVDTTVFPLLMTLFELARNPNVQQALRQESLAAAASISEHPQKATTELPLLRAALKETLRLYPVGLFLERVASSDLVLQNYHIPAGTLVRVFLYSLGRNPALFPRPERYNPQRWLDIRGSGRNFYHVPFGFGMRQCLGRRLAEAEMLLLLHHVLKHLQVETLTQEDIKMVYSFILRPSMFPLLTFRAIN
Assay: MAD study: plasma cortisol (free and total) and 11-deoxycortisol, with and without Cortrosyn challenge
Assay type: in vivo
Settings: for Plasma 11-deoxycortisol AUC0-12 estimated percent change from baseline, LS Mean / Plasma cortisol AUC0-12 estimated percent change from baseline, LS Mean: Day 1
Source text: For each subject, the study consisted of: • A screening period of up to 28 days; • A 5-day inpatient run-in period during which subjects adhered to a controlled, standardized diet and underwent baseline PD assessments; • A 15-day inpatient treatment period, during which subjects received (R)-compound 1 or placebo once daily for 10 days while adhering to a controlled, standardized diet, followed by PK and PD sampling over an additional 5 days; and • A follow-up visit 3 days (1 day) after discharge from the clinical unit. • A cortisol stimulation test (Cohorts 1 and 2 only) and standing aldosterone assessment (all cohorts) were performed on Days 1 and 10. Serial blood samples for PK and PD were obtained prior to and at specified time points over 24 hours after dosing on Day 1 as well as prior to and at specified time points over 120 hours after dosing on Day 10. In addition, blood samples for PK were collected prior to dosing on Days 8 and 9. Urine for PK and PD measurements was collected over 24 hours starting just prior to dosing on Day 1 as well as over 120 hours starting just prior to dosing on Day 10.
These findings are consistent in the presence of Cortrosyn challenge (which occurred with the low salt treatment groups) and in the absence of the challenge (normal salt groups) (Table 13).

[1] = 2.5 mg, low salt diet (Cortrosyn challenge)
[2] = 5.0 mg, low salt diet (Cortrosyn challenge)

## CCC(=O)N[C@@H]1CCCc2c(-c3ccc4c(c3)CCC(=O)N4C)cncc21 [(R)-Compound 1, (R)—N-(4-(1-methyl-2-oxo-1,2,3,4-tetrahydroquinolin-6-yl)-5,6,7,8-tetrahydroisoquinolin-8-yl)propionamide]
0.5 mg, normal salt diet
  Plasma total cortisol, percent change from Day −1 to Day 10, predose, mean: −2.83%
  Plasma 11-deoxycortisol AUC0-12 estimated percent change from baseline, LS Mean: −0.57%
  Plasma cortisol AUC0-12 estimated percent change from baseline, LS Mean: −4.43%
1.5 mg, normal salt diet
  Plasma total cortisol, percent change from Day −1 to Day 10, predose, mean: 19.44%
  Plasma 11-deoxycortisol AUC0-12 estimated percent change from baseline, LS Mean: 2.39%
  Plasma cortisol AUC0-12 estimated percent change from baseline, LS Mean: 0.62%
2.5 mg, low salt diet
  Plasma total cortisol, percent change from Day −1 to Day 10, predose, mean: 5.29%
2.5 mg, normal salt diet
  Plasma total cortisol, percent change from Day −1 to Day 10, predose, mean: −0.09%
  Plasma 11-deoxycortisol AUC0-12 estimated percent change from baseline, LS Mean: 12.73%
  Plasma cortisol AUC0-12 estimated percent change from baseline, LS Mean: −0.52%
5.0 mg, low salt diet
  Plasma total cortisol, percent change from Day −1 to Day 10, predose, mean: 58.40%
Day 1, 12 hours postdose, 0.5 mg, normal salt diet
  Plasma total cortisol, mean: 28.14 ng/mL
Day 1, 12 hours postdose, 1.5 mg, normal salt diet
  Plasma total cortisol, mean: 25.32 ng/mL
Day 1, 12 hours postdose, 2.5 mg, low salt diet
  Plasma total cortisol, mean: 21.90 ng/mL
Day 1, 12 hours postdose, 2.5 mg, normal salt diet
  Plasma total cortisol, mean: 30.10 ng/mL
Day 1, 12 hours postdose, 5.0 mg, low salt diet
  Plasma total cortisol, mean: 19.43 ng/mL
Day 1, predose, 0.5 mg, normal salt diet
  Plasma total cortisol, mean: 84.15 ng/mL
Day 1, predose, 1.5 mg, normal salt diet
  Plasma total cortisol, mean: 97.61 ng/mL
Day 1, predose, 2.5 mg, low salt diet
  Plasma total cortisol, mean: 71.75 ng/mL
Day 1, predose, 2.5 mg, normal salt diet
  Plasma total cortisol, mean: 106.85 ng/mL
Day 1, predose, 5.0 mg, low salt diet
  Plasma total cortisol, mean: 68.24 ng/mL
[1]
  Plasma 11-deoxycortisol AUC0-12 estimated percent change from baseline, LS Mean: 21.63%
  Plasma cortisol AUC0-12 estimated percent change from baseline, LS Mean: −3.91%
[2]
  Plasma 11-deoxycortisol AUC0-12 estimated percent change from baseline, LS Mean: 36.67%
  Plasma cortisol AUC0-12 estimated percent change from baseline, LS Mean: 4.04%
Day 2, predose, 0.5 mg, normal salt diet
  Plasma total cortisol, mean: 88.33 ng/mL
Day 2, predose, 1.5 mg, normal salt diet
  Plasma total cortisol, mean: 95.12 ng/mL
Day 2, predose, 2.5 mg, normal salt diet
  Plasma total cortisol, mean: 109.23 ng/mL
Day 10, 12 hours postdose, 0.5 mg, normal salt diet
  Plasma total cortisol, mean: 22.36 ng/mL
Day 10, 12 hours postdose, 1.5 mg, normal salt diet
  Plasma total cortisol, mean: 41.31 ng/mL
Day 10, 12 hours postdose, 2.5 mg, low salt diet
  Plasma total cortisol, mean: 22.93 ng/mL
Day 10, 12 hours postdose, 2.5 mg, normal salt diet
  Plasma total cortisol, mean: 31.86 ng/mL
Day 10, 12 hours postdose, 5.0 mg, low salt diet
  Plasma total cortisol, mean: 31.90 ng/mL
Day 10, 24 hours postdose, 0.5 mg, normal salt diet
  Plasma total cortisol, mean: 95.76 ng/mL
Day 10, 24 hours postdose, 1.5 mg, normal salt diet
  Plasma total cortisol, mean: 90.27 ng/mL
Day 10, 24 hours postdose, 2.5 mg, low salt diet
  Plasma total cortisol, mean: 94.36 ng/mL
Day 10, 24 hours postdose, 2.5 mg, normal salt diet
  Plasma total cortisol, mean: 126.20 ng/mL
Day 10, 24 hours postdose, 5.0 mg, low salt diet
  Plasma total cortisol, mean: 121.40 ng/mL
Day 10, predose, 0.5 mg, normal salt diet
  Plasma total cortisol, mean: 81.90 ng/mL
